Laboratory results taken from patent US20220152117A1, “METHODS OF PROMOTING CELLULAR MATURATION WITH AMPK ACTIVATORS” (UNIVERSITY OF WASHINGTON, priority 2019, published 2022).
Several values for one entry are separate records, joined by “and”; a condition that tells them apart may be missing. Identical values can stand only once.

Test system: hiPSC-derived cardiomyocytes
Test: Contractile force assessment on micropost arrays
Format: cell-based, human
Conditions: 1 mM AICAR for one week
Description: Contractile force was assessed using micropost arrays, following a procedure similar to previously reported studies on cardiomyocytes^2, 31, 32. The process used to fabricate the micropost arrays is described in detail elsewhere^33, 34. The microposts (6.45 μm in height, 2.3 μm in diameter, 6 μm center-to-center post spacing) were cast onto 25 mm diameter round #1 glass coverslips (VWR®). To enable cell attachment, the tips of these microposts were stamped with 50 μg/ml of mouse laminin (Life Technologies®) via microcontact printing, while the remaining surfaces of the micropost array were fluorescently stained with BSA conjugates with Alexa Fluor 594 and blocked with 0.2% Pluronic F-127 (in PBS)^34. Twenty days following differentiation, hiPSC-derived cardiomyocytes were seeded onto the micropost arrays in Attoflour chambers at a density of approximately 500,000 cells per chamber (˜100,000 cells/cm^2), in RPMI media supplemented with 5% fetal bovine serum. After 24 hours, the medium was replaced with serum-free RPMI-B27 plus insulin, which then was exchanged every other day. Beginning two days after seeding, half of the substrates were treated with 1 mM AICAR for one week. Prior to live imaging, the media was exchanged to Tyrode's buffer. Individual cardiomyocyte twitch forces were recorded under phase light using high-speed video microscopy in a live cell chamber at 37° C., as previously described^32. Only the contractile forces of single cardiomyocytes (no junctions with adjacent cells) with obvious beating activity were assessed. Post deflections were optically measured at approximately 100 frames/sec on a Nikon Ti-E™ upright microscope with a 60× water immersion objective. A custom-written MATLAB™ code was used to compare each time frame of the video to a reference fluorescent image taken at the base of the posts. Contractile forces were subsequently calculated by multiplying the deflection of each microposts by its bending stiffness: F=kδ (1) where F is the force at a single micropost, k is the post's bending stiffness (44.54 nN/μm for this study), and δ is the horizontal distance between the centroid of the post's tip and the centroid of the post's base. The total contractile force for each cardiomyocyte was calculated as the sum of the forces at each post beneath it. The passive tension, or baseline force, was defined as the contractile force when a cardiomyocyte was at rest, i.e. in between beats. The total twitch force was defined as the difference between the peak contractile force (achieved during a twitch) and the passive tension. Additionally, the average twitch force per post was analyzed in order to normalize the total twitch force by cell area. The average twitch force per post was calculated as the total twitch force divided by the number of posts underneath a cardiomyocyte. Passive tension, total twitch force, average twitch force per post, and beating frequency were used to compare the independent biological replicates (N=2, with 16-38 cells per independent biological replicate).

`NC(=O)c1ncn([C@@H]2O[C@H](CO)[C@@H](O)[C@H]2O)c1N` [AICAR, 5-amino-4-imidazolecarboxamide riboside-1-β-D-ribofuranoside] was tested, and the beating frequency (control 0.87±0.07) was 0.49±0.04 Hz, the twitch force (control 9.7±0.7) was 14.1±1.6 nN/cell and ~14.1 nN/cell and the passive tension (control 82.68±4.35) was 114.77±7.93 nN/cell. The “cellular size on microposts” value (control 213±5) was 260±11 μm^2 and the “average twitch force per post” value (controls ~1.2) was about 1.4 nN/post.
